# From paper PMC8491553 (ACS Medicinal Chemistry Letters, 2021)
# Target: SARS-CoV-2 main protease (3CLpro) (Severe acute respiratory syndrome coronavirus 2, UniProt P0DTD1)
# Type: biochemical
row,SMILES,activity as main protease inhibitor (in words)
1,Cn1nc(C(=O)N2CC3(C)CN(C(=O)c4nn(C)c5c4CCc4ccccc4-5)CC(C)(C2)C3=O)c2c1-c1ccccc1CC2 [Compound 2j],submicromolar range
2,C#CCN1CC2(C)CN(CC#C)CC(C)(C1)C2=O [Compound 4c],lower micromolar range
3,CC12CN(Cc3ccccc3)CC(C)(CN(Cc3ccccc3)C1)C2=O [Compound 4d],submicromolar activity
4,CC12CN(CC#N)CC(C)(CN(CC#N)C1)C2=O [Compound 4l],lower micromolar range
5,CC12CN(CC(=O)O)CC(C)(CN(CC(=O)O)C1)C2=O [Compound 4m],lower micromolar range
6,Cc1cc(CN2CC3(C)CN(Cc4cc(C)no4)CC(C)(C2)C3=O)on1 [Compound 4o],lower micromolar range
7,CC(C)(C)OC(=O)Cn1cc(CN2CC3(C)CN(Cc4cn(CC(=O)OC(C)(C)C)nn4)CC(C)(C2)C3=O)nn1 [Compound 4p],lower micromolar range
8,CC(C)(C)OC(=O)NCCn1cc(CN2CC3(C)CN(Cc4cn(CCNC(=O)OC(C)(C)C)nn4)CC(C)(C2)C3=O)nn1 [Compound 4q],submicromolar activity
9,CC12CN(Cc3cn(Cc4ccccc4)nn3)CC(C)(CN(Cc3cn(Cc4ccccc4)nn3)C1)C2=O [Compound 4r],lower micromolar range
10,"CC(C)Cc1ccc(C(C)C(=O)O)cc1 (stereo not shown) [Ibuprofen, reference compound]",no activity at all
